The values below come from ChEMBL document CHEMBL5518171, “Curcumin hybrid molecules for the treatment of Alzheimer's disease: Structure and pharmacological activities” (Eur J Med Chem, 2024).

SMILES strings stand for the structures.

By EC50 is commonly meant the concentration that produces a half-maximal response. One may read the inhibition as how much of the control response was suppressed. A high value points to a strong effect. A word on the IC50: it is the concentration at which inhibition is half-maximal.

The nature of assay [1]: Neuroprotective activity against human MC65 cells assessed as increase in cell viability incubated for 72 hrs in absence of tetracycline by MTT assay. The format is functional, cell-based. To be noted: MC65, 72 h. In general terms: Tetrazolium dyes change colour on reduction, which living cells bring about.
Assay [2] deals with Cholinesterase (Equus caballus) (UniProt P81908). The assay is described as follows: Inhibition of equine BChE at 100 uM by Ellman's method relative to control. A general note: Ellman's reagent forms a yellow product with free thiols.
Cholinesterase (Equus caballus), sequence (P81908 whole entry): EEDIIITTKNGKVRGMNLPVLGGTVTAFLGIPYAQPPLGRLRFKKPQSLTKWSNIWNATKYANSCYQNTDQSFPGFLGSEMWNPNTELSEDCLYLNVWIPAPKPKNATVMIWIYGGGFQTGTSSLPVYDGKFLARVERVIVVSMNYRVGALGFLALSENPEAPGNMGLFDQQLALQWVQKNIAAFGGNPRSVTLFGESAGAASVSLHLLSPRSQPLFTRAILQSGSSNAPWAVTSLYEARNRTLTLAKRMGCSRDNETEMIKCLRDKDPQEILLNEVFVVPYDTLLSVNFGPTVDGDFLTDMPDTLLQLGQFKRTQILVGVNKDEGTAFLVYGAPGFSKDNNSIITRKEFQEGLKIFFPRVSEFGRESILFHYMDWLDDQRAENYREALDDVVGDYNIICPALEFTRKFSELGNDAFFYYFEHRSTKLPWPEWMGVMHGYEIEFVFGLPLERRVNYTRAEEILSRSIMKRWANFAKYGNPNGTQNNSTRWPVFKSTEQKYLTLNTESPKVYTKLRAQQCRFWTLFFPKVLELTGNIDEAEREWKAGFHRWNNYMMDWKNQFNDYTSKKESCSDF
Assay [3] concerns the target T1, Amine oxidase [flavin-containing] A (Homo sapiens, UniProt P21397).
T1 sequence (P21397 whole entry): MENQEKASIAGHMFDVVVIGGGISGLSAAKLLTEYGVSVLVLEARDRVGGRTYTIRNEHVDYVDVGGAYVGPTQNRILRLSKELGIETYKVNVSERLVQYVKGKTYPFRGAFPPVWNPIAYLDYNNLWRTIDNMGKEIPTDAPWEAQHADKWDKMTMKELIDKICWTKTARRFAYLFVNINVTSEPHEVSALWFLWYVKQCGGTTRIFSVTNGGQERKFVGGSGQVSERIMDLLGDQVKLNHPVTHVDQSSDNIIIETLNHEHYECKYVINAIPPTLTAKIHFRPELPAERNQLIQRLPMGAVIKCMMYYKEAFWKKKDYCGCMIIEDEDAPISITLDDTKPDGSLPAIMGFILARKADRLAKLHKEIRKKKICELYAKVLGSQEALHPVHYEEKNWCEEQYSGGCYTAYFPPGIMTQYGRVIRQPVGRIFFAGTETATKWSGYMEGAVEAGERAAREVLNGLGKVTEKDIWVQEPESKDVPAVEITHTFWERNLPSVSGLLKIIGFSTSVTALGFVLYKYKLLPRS
In words: Inhibition of human MAO-A using p-tyramine as substrate at 100 uM incubated for 15 mins by Amplex red and horseradish peroxidase based fluorescence assay relative to control. Conditions: 0.25 h.

Assay [4] deals with T2, Amine oxidase [flavin-containing] B (Homo sapiens, UniProt P27338).
T2 sequence (P27338 whole entry): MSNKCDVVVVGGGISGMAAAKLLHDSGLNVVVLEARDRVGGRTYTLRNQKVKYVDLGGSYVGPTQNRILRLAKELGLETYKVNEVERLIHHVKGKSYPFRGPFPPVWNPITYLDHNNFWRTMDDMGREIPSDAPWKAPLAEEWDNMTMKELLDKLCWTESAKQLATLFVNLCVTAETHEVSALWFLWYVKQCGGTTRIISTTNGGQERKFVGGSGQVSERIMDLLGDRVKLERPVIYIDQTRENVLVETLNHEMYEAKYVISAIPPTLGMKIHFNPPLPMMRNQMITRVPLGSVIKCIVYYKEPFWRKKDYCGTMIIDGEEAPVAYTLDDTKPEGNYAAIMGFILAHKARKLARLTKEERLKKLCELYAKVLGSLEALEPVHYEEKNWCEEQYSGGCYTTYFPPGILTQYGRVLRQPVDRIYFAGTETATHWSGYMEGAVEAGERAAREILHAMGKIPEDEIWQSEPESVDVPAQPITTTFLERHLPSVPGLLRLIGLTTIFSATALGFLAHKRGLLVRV
In words: Inhibition of human MAO-B using p-tyramine as substrate at 100 uM incubated for 15 mins by Amplex red and horseradish peroxidase based fluorescence assay. Conditions: 0.25 h.

The test system of a further assay is SH-SY5Y. The assay is described as follows: Antioxidant activity in human SH-SY5Y cells assessed as increase in intracellular GSH level at 10 uM incubated for 24 hrs by […] staining based fluorescence analysis. The format is functional.
The nature of assay [5]: Antioxidant activity assessed as DPPH radical scavenging activity st 80 uM incubated for 1 hr by DPPH assay. The format is functional.
A short description of assay [6]: Antioxidant activity assessed as DPPH radical scavenging activity at 80 uM incubated for 1 hr by DPPH assay relative to control. Format: functional.
The subject of the next assay is N2a. In words: Antiproliferative activity against mouse Neuro2a cells assessed as reduction in cell viability incubated for 72 hrs by MTT assay. Format: functional, cell-based.
The nature of assay [7]: Antioxidant activity assessed as ROS scavenging activity. The format is functional.
A short description of assay [8]: Antioxidant activity assessed as DPPH radical scavenging activity by spectrophotometric analysis. The format is functional. (In general: Loss of DPPH colour is used to gauge radical scavenging.)
The nature of assay [9]: Antioxidant activity assessed as DPPH radical scavenging activity measured after 30 mins by UV-visible spectrophotometric analysis. The format is functional.
The next assay deals with Cholinesterase (Equus caballus, UniProt P81908). In words: Inhibition of equine BChE using BTCh as substrate incubated for 5 mins by Ellmans method.
Cholinesterase, sequence (P81908 whole entry): as the sequence (P81908 whole entry) above
The target in a further assay is Acetylcholinesterase (Electrophorus electricus, UniProt O42275).
Acetylcholinesterase, sequence (O42275 whole entry): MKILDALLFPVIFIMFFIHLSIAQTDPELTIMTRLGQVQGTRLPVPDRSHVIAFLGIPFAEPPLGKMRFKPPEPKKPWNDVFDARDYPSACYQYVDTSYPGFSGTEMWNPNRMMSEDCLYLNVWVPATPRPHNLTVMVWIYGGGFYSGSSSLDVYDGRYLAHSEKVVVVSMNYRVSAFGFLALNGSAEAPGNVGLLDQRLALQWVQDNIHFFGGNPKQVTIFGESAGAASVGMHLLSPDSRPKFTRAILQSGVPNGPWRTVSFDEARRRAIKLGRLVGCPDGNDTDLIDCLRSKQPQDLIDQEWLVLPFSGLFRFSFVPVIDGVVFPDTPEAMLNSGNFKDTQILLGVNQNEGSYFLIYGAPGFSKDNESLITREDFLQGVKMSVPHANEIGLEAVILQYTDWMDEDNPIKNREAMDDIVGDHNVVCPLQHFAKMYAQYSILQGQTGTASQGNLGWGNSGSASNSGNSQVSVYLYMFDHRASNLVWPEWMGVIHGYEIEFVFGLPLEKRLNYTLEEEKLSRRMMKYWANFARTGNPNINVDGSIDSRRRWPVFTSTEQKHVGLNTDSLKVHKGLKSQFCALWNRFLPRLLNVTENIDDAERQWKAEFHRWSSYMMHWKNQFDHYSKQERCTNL

Description for Acetylcholinesterase: Inhibition of Electric eel AChE using acetylthiocholine iodide as substrate incubated for 15 mins by Ellman's method

As to `COc1ccc2[nH]cc(CCNC(=O)CC(=O)/C=C/c3ccc(O)cc3)c2c1`, the concentration for a half-maximal effect (EC50) in [1] stood at 23.1 nM.
Consider `O=C(/C=C/c1cc(O)c(O)cc1O)CC(=O)/C=C/c1cc2ccc(O)c(O)c2oc1=O`, for which the inhibition in [2] amounted to 43.3%. Moreover, the inhibition at 100 µM in assay [3] was determined as 60.9%; in assay [4], 45.8%.
With `COc1ccc2[nH]cc(CCNC(=O)CC(=O)/C=C/c3ccc(O)c(OC)c3)c2c1`, the EC50 in assay [1] is 134 nM.
Consider `O=C(/C=C/c1ccc(O)c(O)c1)NN=C1CCN(Cc2ccccc2)CC1`, for which the Activity in the assay on SH-SY5Y stood at 33%; in [5] it was 45%; in [6] it was 45%.
As for `COc1ccc(/C=C/C(=O)CCCCN2CC[C@@]34C=C[C@H](O)C[C@@H]3Oc3c(OC)ccc(c34)C2)cc1`, the IC50 in the assay with N2a came to 50000 nM.
For `CCCCN1C(=O)/C(=C(O)/C=C/c2cc(OC)c(OC)c(OC)c2)C(C(=O)OCC)=C1C`, in assay [7], the Activity came out at 61%.
Regarding `COc1cc(/C=C/C(=O)NN=C2CCN(Cc3ccccc3)CC2)ccc1O`, the Activity with SH-SY5Y stood at 34%; in assay [5] it was 53.4%; in [6], 53.4%.
Take `CCCCN1C(=O)/C(=C(O)/C=C/c2ccc(O)c(OC)c2)C(C(=O)OC)=C1C`: the Activity in assay [8] came to 8.87%.
Turning to `CCCCN1C(=O)/C(=C(O)/C=C/c2cc(OC)c(OC)c(OC)c2)C(C(=O)OC)=C1C`, in assay [9], the Activity turned out to be 10.8%.
`COc1cc(/C=C/C(=O)OCCCCCN(C)Cc2cccc(OC(=O)N(C)C)c2)ccc1O`: the IC50 was 590 nM against Cholinesterase and 19.7 nM on Acetylcholinesterase.
